Marks after values point to notes of the source that are not given here.
Experiments:
[1] = test system: φX174 RFI (Form I) double stranded DNA; test: DNA cleavage of supercoiled φX174 RFI (Form I) DNA, agarose gel electrophoresis and densitometry; format: biochemical; conditions: FIG. 1; 100 μM, pH range 7.0-8.5, 72 hours
[2] = test system: φX174 RFI (Form I) double stranded DNA; test: as above; format: biochemical; conditions: for net DNA cut (%) / DNA cleavage potency relative to Compound A: 37° C.; for net DNA cut (%): TEA buffer pH 8.5, 20% DMSO; for DNA cleavage potency relative to Compound A: 72 hours
Method: DNA cleavage studies on the compounds of this invention were performed by using supercoiled, covalently closed, circular φX174 RFI (Form I) double stranded DNA. Thus, a 54.3 μM/bp (micromolar per base pair) solution of φX174 RFI DNA and a compound in the indicated concentration in TEA buffer (pH 8.5) containing 20% DMSO was incubated at 37° C. for 48-72 hours and analyzed by 1% agarose gel electrophoresis to separate the various forms of DNA. DNA cleavage was indicated by the formation of nicked relaxed circular DNA (Form II) or linearized DNA (Form III), which was visualized using ethidium bromide stain. A photo picture of the gel was taken over a 365 nanometer ultra-violet light transilluminator and the relative densities of DNA bands were quantitated by a GS-700 imaging densitometer (BIO-RAD). The percentage of net DNA cleavage was calculated by the following equation:
Net DNA Cleavage (%)={[(Form II)s+2×(Form III)s]/[(Form I)s+(Form II)s+2×(Form III)s]×100}−{(Form II)c/[(Form I)c+(Form II)c]×100}
wherein the subscripts “s” and “c” refer to as the samples and controls, respectively.

[3] = test system: P388 mice T cell leukemia cells; test: Cytotoxicity by MTT assay in P388 cells; format: cell-based, mouse
Method: Cytotoxicity was assessed in P388 mice T cell leukemia cells by MTT [3-(4,5-dimethylthiazol-2-yl)-2,5-diphenyl-2H-tetrazolium bromide] assay. Cell suspension (1×10^5 cells/mL) was plated in 96 well microtiter plates at 50 μL/well and it was followed by 50 μL/well of the test compound in serially diluted concentrations. The cells were incubated at 37° C. in a humidified atmosphere containing 5% CO2 in air for 72 hours at which time the tetrazolium dye, MTT, was added. After another 3 hours incubation, 100 μL/well of acidified 2-propanol (0.04 N HCl) was added. The optical densities of the plates were measured with a microplate reader (BIO-RAD) at 570 nm. The greater the absorbance the greater the number of live cells. The results are expressed as an IC50 which is the drug concentration required to inhibit cell proliferation to 50% of that of untreated control cells. The detailed procedure is found in Mosman, J. Immunol. Methods 65:55 (1983); Ferrari et al., Immunol. Methods 131:165 (1990).

[4] = at 37° C.; cited from earlier work
[5] = P388 mouse leukemia cells, 37° C., 72 h, 5% CO2

Structure (SMILES) | net DNA cut (%) ([2]; At 20 μM) | IC50 [3, 5] [µM] | other results
OC1C#CCCCCC#C/C1=C\c1ccccc1 (stereo not drawn) [Compound 6, (E)-4-(Phenylmethylidene)cyclodeca-1,5-diyn-3-ol] | – | – | DNA cleavage activity (in words) [1]: less potent compared to the corresponding acetate, Compound 29
CC(=O)OC1C#CCCCCC#C/C1=C\c1ccccc1 (stereo not drawn) [Compound 29, (E)-3-Acetoxy-4-(phenylmethylidene)cyclodeca-1,5-diyne] | 19.3[b] % | 48 | DNA cleavage activity (in words) [1]: slightly higher DNA cleavage activity in the basic pHs
COc1ccc(/C=C2\C#CCCCCC#CC2OC(C)=O)cc1 (stereo not drawn) [Compound 30a, (E)-3-Acetoxy-4-[(4′-methoxyphenyl)methylidene]cyclodeca-1,5-diyne] | 86.4[b] % | 15 | –
CC(=O)OC1C#CCCCCC#C/C1=C\c1cccc2ccccc12 (stereo not drawn) [Compound 30b, (E)-3-Acetoxy-4-(1′-naphthylmethylidene)cyclodeca-1,5-diyne] | 77.7[b] % | 2.4 | net DNA cut (%) ([2]; At 5 μM): 33.5[d] %; IC50 ([3]; Mus musculus, P388 cells): 2.4 µM
CC(=O)OC1C#CCCCCC#C/C1=C\c1ccc2ccccc2c1 (stereo not drawn) [Compound 30c, (E)-3-Acetoxy-4-(2′-naphthylmethylidene)cyclodeca-1,5-diyne] | 82.3[b] % | 2.8 | IC50 ([3]; Mus musculus, P388 cells): 2.8 µM
COCC(=O)OC1C#CCCCCC#C/C1=C\c1ccccc1 (stereo not drawn) [Compound 31, (E)-3-Methoxyacetoxy4-(phenylmethylidene)cyclodeca-1,5-diyne] | 13.2[b] % | 23 | DNA cleavage potency relative to Compound A ([2]; FIG. 2, pH 8.5): ca. 100 fold; DNA cleavage activity (in words) ([2]; FIG. 2, concentration range 5-100 μM, pH 8.5): same level of DNA cleavage activity as enediyne, Compound 42
COCC(=O)OC1C#CCCCCC#C/C1=C\c1cccc2ccccc12 (stereo not drawn) [Compound 32b, (E)-3-Methoxyacetoxy-4-(1′-naphthylmethylidene)cyclodeca-1,5-diyne] | 87.4[b] % | 12 | net DNA cut (%) ([2]; At 5 μM): 38.8[d] %
COCC(=O)OC1C#CCCCCC#C/C1=C\c1ccc2ccccc2c1 (stereo not drawn) [Compound 32c, (E)-3-Methoxyacetoxy-4-(2′-naphthylmethylidene)cyclodeca-1,5-diyne] | 71.9[b] % | 28 | –
COc1ccc(C(O)/C2=C/C#CCCCCC#C2)cc1 (stereo not drawn) [Compound 33, 3-[1′-Hydroxy-1′-(4″-methoxyphenyl)methyl]cyclodeca-3-en-1,5-diyne] | – | – | DNA cleavage activity (in words) ([2]; FIG. 4, 20 μM, pH 8.5): reduced DNA cleavage activity
CC(=O)OC1C#CCCCCC#C/C1=C\c1ccccc1CO[Si](C)(C)C(C)(C)C (stereo not drawn) [Compound 34a, (E)-3-Acetoxy-4-[2′-((((tert-butyldimethyl)silyloxy)methyl)phenyl)methylidene]cyclodeca-1,5-diyne] | – | > 50 | net DNA cut (%) ([2]; At 100 μM): 10.7[c] %
COCC(=O)OC1C#CCCCCC#C/C1=C\c1ccccc1CO[Si](C)(C)C(C)(C)C (stereo not drawn) [Compound 34b, (E)-4-[2′-((((tert-butyldimethyl)silyloxy)methyl)phenyl)methylidene]-3-(methoxyacetoxy)cyclodeca-1,5-diyne] | – | > 50 | net DNA cut (%) ([2]; At 100 μM): 14.4[c] %
CC(=O)OC1C#CCCCCC#C/C1=C\c1ccccc1CO (stereo not drawn) [Compound 35a, (E)-3-Acetoxy-4-[2′-((hydroxymethyl)phenyl)methylidene]cyclodeca-1,5-diyne] | – | 21 | net DNA cut (%) ([2]; At 100 μM): 23.5[c] %
COCC(=O)OC1C#CCCCCC#C/C1=C\c1ccccc1CO (stereo not drawn) [Compound 35b] | – | 16 | net DNA cut (%) ([2]; At 100 μM): 17.6[c] %
CCC(=O)OC1C#CCCCCC#C/C1=C\c1cccc2ccccc12 (stereo not drawn) [Compound 36, (E)-4-(1′-Naphthylmethylidene)-3-(propanoyloxy)cyclodeca-1,5-diyne] | – | 10 | –
CCCCCCCC(=O)OC1C#CCCCCC#C/C1=C\c1cccc2ccccc12 (stereo not drawn) [Compound 37, (E)-4-(1′-Naphthylmethylidene)-3-(octanoyloxy)cyclodeca-1,5-diyne] | – | 13 | net DNA cut (%) ([2]; At 5 μM): 4.67[d] %; DNA cleavage activity relative to Compound 32b ([2]; FIG. 5, 5 μM, pH 8.5): ca. one eighth
O=C(COCc1ccccc1)OC1C#CCCCCC#C/C1=C\c1cccc2ccccc12 (stereo not drawn) [Compound 38, (E)-3-(Benzyloxy)acetoxy4-(1′-naphthylmethylidene)cyclodeca-1,5-diyne] | – | 6.7 | net DNA cut (%) ([2]; At 5 μM): 38.6[d] %
COc1ccc(COCC(=O)OC2C#CCCCCC#C/C2=C\c2cccc3ccccc23)cc1 (stereo not drawn) [Compound 39, (E)-3-[(4′-Methoxybenzyl)oxy]acetoxy-4-(1″-naphthylmethylidene)cyclodeca-1,5-diyne] | – | 97 | net DNA cut (%) ([2]; At 5 μM): 26.1[d] %
COc1ccc(OC)c(C(=O)OC2C#CCCCCC#C/C2=C\c2cccc3ccccc23)c1 (stereo not drawn) [Compound 40, (E)4-(1′-Naphthylmethylidene)-3-((2″,5″-dimethoxybenzoyl)oxy)cyclodeca-1,5-diyne] | – | 17 | net DNA cut (%) ([2]; At 5 μM): 35.6[d] %; DNA cleavage activity (in words) ([2]; FIG. 5, 5 μM, pH 8.5): little effect as compared to the acetate in Compound 30b
O=C(OC1C#CCCCCC#C/C1=C\c1cccc2ccccc12)c1cccc2cc3ccccc3cc12 (stereo not drawn) [Compound 41, (E)-3-[(1′-Anthracenecarbonyl)oxy]-4-(1″-naphthylmethylidene)cyclodeca-1,5-diyne] | – | 11 | net DNA cut (%) ([2]; At 5 μM): 10.6[d] %; DNA cleavage activity (in words) ([2]; FIG. 5, 5 μM, pH 8.5): reduced the DNA cleaving potency
COCC(=O)OC(/C1=C/C#CCCCCC#C1)c1ccccc1 (stereo not drawn) [Compound 42, 3-[(1′-Methoxyacetoxy-1′-phenyl)methyl]cyclodeca-3-en-1,5-diyne] | 12.9[b] % | 7.7 | DNA cleavage potency relative to Compound A ([2]; FIG. 2, pH 8.5): ca. 100 fold
COCC(=O)OC(/C1=C/C#CCCCCC#C1)c1cccc2ccccc12 (stereo not drawn) [Compound 43a, 3-[(1′-Methoxyacetoxy-1′-(1″-naphthyl))methyl]cyclodeca-3-en-1,5-diyne] | 67.4[b] % | 3.8 | –
COCC(=O)OC(/C1=C/C#CCCCCC#C1)c1ccc2ccccc2c1 (stereo not drawn) [Compound 43b, 3-[(1′-Methoxyacetoxy-1′-(2″-naphthyl))methyl]cyclodeca-3-en-1,5-diyne] | 77.8[b] % | 9.6 | –
COCC(=O)OC(C1=CC#CCCCCC#C1)c1ccccc1CO[Si](C)(C)C(C)(C)C (stereo not drawn) [Compound 45, 3-[1′-(2″-(((tert-Butyldimethyl)silyloxy)methyl)phenyl)-1′-(methoxyacetoxy)methyl]cyclodeca-3en-1,5-diyne] | – | 12 | net DNA cut (%) ([2]; At 100 μM): 4.13[c] %
COCC(=O)OC(/C1=C/C#CCCCCC#C1)c1ccccc1CO (stereo not drawn) [Compound 48] | – | 8.1 | –
C1#CCCCCC#C/C(C2OCc3ccccc32)=C\1 (stereo not drawn) [Compound 51, 3-[2′,5′-Dihydrobenzofuran-2′-yl]cyclodeca-3-en-1,5-diyne] | – | – | DNA cleavage activity (in words) ([2]; FIG. 6, 100 μM, pH 8.5): less potent than Compound 42
C1#CCCCCC#CC=C1 [cyclodeca-1,5-diyn-3-ene] | – | – | half-life [4]: 18 h
